Experiments:
A549 = assay: IBDV replication with or without 5 mM 2-aminopurin, TCID50 titration, A549 (RAS mutant); format: cell-based, human; conditions: IBDV MOI 0.05, 5 mM 2-AP versus none, 96 h
Description: (§1) FIG. 2: Enhancement of IBDV replication following treatment with 2-aminopurin in cell lines with normal RAS function (HEK293, AGE1.CR.PIX) but not in a RAS defective cell line (A549). Cells were infected with IBDV at MOI 0.05 either in the presence of 5 mM 2-aminopurin (2-AP) or without, cells together with supernatant were lysed by 3× freeze/thaw steps, cell debris was removed by centrifugation and the virus titer was quantified by TCID50.
(§2) Because susceptibility varies among cell lines, the positive impact of a RAS defect on IBDV replication has to be shown comparing cells of the same type with a specific propensity to replicate IBDV with normal and defect RAS function. Such RAS defect can be simulated in a cell line with normal RAS when cells are treated with 2-aminopurin. The drug prevents phosphorylation of protein kinase PKR that is prevented in cells with a RAS defect. The effect of 2-aminopurin on IBDV replication is studied in cell lines with (A549) and without a RAS mutation (AGE1.CR.PIX, HEK293).
(§3) HEK 293, A549, and AGE1.CR.pIX cells were infected with IBDV at MOI 0.05 either in the presence of 5 mM 2-aminopurin (2-AP) or without. […] Subsequently, the virus titer was quantified by TCID50 titration in different dilutions using adherent AGE1.CR.PIX cells. Based on the cytopathic effect (CPE) the TCID50 titer was evaluated 72 hours post infection (FIG. 2).

HEK293 = assay: IBDV replication with or without 5 mM 2-aminopurin, TCID50 titration, HEK293; format: cell-based; conditions: HEK293 (normal RAS), IBDV MOI 0.05, 5 mM 2-AP versus none, 96 h
Description: as §1, §2, §3

AGE1.CR.PIX = assay: IBDV replication with or without 5 mM 2-aminopurin, TCID50 titration, AGE1.CR.PIX; format: cell-based, duck; conditions: AGE1.CR.PIX (normal RAS), IBDV MOI 0.05, 5 mM 2-AP versus none, 96 h
Description: as §1, §2, §3

[1] = tested on: stage IV hilar cholangiocarcinoma; assay: Compassionate use case report: cholangiocarcinoma; format: in vivo, human; conditions: same patient before IBDV; agents added to ongoing low-dose chemotherapy; CA19-9 at diagnosis 2,729
From the text: A person approached the clinic for treatment of resistant stage IV hilar cholangiocarcinoma, CK7 positive, CK20 negative with confirmed peritoneal metastatic disease. During 2016 patient developed unexplained weight loss of approximately 10 kg, night pruritus. […] In January 2017 jaundice developed. Blood test on 19 Mar. […] Considering tumor location and potential involvement of both right and left lobes, no surgical procedure was considered, except liver transplantation. On 10 Apr. 2017 a biliary stent was introduced for drainage of rising levels of bilirubin >14 mg/dL. On 13 Apr. 2017 abdominal exploratory laparoscopy reviled peritoneal metastases and conventional chemotherapy was recommended but the patient preferred synergic combination of low doses of gemcitabine, leucovorin, fluorouracil, irinotecan and oxaliplatin administered over 48 h period every two weeks. After discovery of 2 mutations on BRCA1 (Exon 10/V9201) and BRCA2 (Exon 11/N2113S) it was decided to add PARP inhibitor and on 24 Jul. 2017 rucaparib was added and CA19-9 dropped to 287 IU/mL. CA19-9 increased following administration of nivolumab but stabilized at 250 IU/mL by adding abraxane, gemcitabine and oxaliplatin. Following addition of Erbitux and later on combinations of low-dose (1.0 mg/kg) ipilimumab and nivolumab (2 mg/kg) CA19-9 levels dropped from 369 IU/mL to normal levels. […]

| Molecule | Effect on IBDV replication (virus titer, TCID50) (A549) | Enhancement of IBDV replication (virus titer, TCID50) (HEK293) | Enhancement of IBDV replication (virus titer, TCID50) (AGE1.CR.PIX) | Tumor marker CA19-9 level after adding the agent (earlier therapy, patient history) [1] |
| --- | --- | --- | --- | --- |
| Nc1ncc2[nH]cnc2n1 [2-aminopurine] | no benefit | approximately 10 fold | approximately 10 fold |  |
| nivolumab |  |  |  | increased |
| CNCc1ccc(-c2[nH]c3cc(F)cc4c3c2CCNC4=O)cc1 [rucaparib] |  |  |  | 287 IU/mL |

Source: patent publication US20240299476A1, “USE OF A BIRNAVIRUS ALONE OR IN COMBINATION THERAPY FOR THE TREATMENT OF CANCER” (Probiogen AG, priority 2020, published 2024)
